Several values for one entry are separate records, joined by “and”; a condition that tells them apart may be missing. Identical values can stand only once. Like-named read-outs stand apart in the source and are kept apart here.
Key:
[1] = system: Aβ25-35-induced Aβ1-42 accumulation in the rat hippocampus; assay: Aβ1-42 content in hippocampus by ELISA after i.c.v. Aβ25-35 injection; type: in vivo, male Sprague Dawley rats; conditions: 10 mg/kg i.v. once a day; after Aβ25-35 injection; vs Sc.Aβ/Veh group
Description: The compound efficacy was evaluated 7 days after the peptide administration, on: • the attenuation of the Aβ25-35-induced learning deficits (recognition long-term memory: novel object recognition); • the attenuation of the Aβ25-35-induced Aβ^1-42 accumulation in the rat hippocampus.
One administration procedure was examined: the compound 1 (10 mg/kg) administered intraveinously (i.v.) once a day during 9 days.
On day 10, all animals were sacrificed, the frontal cortex and hippocampi dissected out. One hippocampus was used for the ELISA analyses of Aβ1-42 content.
Samples were prepared from one hippocampus tissues of each rat per group and homogenized in an extraction buffer specific to the commercial ELISA assay kits.
After thawing, the hippocampus were homogenized in 50 mM Tris-150 mM NaCl buffer, pH 7.5, and sonicated for 20 s. After centrifugation (16,100 g for 15 min, 4° C.), supernatants were used for Aβ1-42 ELISA assay according to the manufacturer instructions. Absorbance was read at 450 nm and sample concentration was calculated using the standard curve. Results will be expressed in pg of Aβ1-42 per mg of tissue. […]
All values were expressed as mean±S.E.M. Statistical analyses were performed on the different conditions using one-way ANOVA (F value), followed by the Dunnett's post-hoc multiple comparison test. p<0.05 was considered as statistically significant.

[2] = Single dose i.p. and i.v. blood brain barrier permeability study, plasma and brain concentration (LC-MS/MS); type: in vivo, male Sprague Dawley rat; conditions: for concentration at 2 h: male, Sprague Dawley, 10 mg/kg
Description: The objective of these tests was to determine the plasma and brain concentration of the compound 1 in male Sprague Dawley rat after single intraperioneal (i.p.) and intravenous (i.v.) administration.
The compound 1 was administered intravenously (i.v.) through tail vein and intraperitoneally (i.p.) in abdominal cavity. After dosing of each animal, the time was documented.
Formulation vehicle: 20 Vol.-% Cremophore, 10 Vol.-% ethanol, 70 Vol.-% normal saline
Bioanalysis was performed using fit-for-purpose LC-MS/MS method for the quantification of test compounds in plasma samples and brain homogenate. The method was validated for calibration curve consisted of nine non-zero calibration standards along with a double blank and zero standard samples. Study samples were analysed along with two sets of quality control samples (6 QC samples; low, medium and high QC sample).
Sample Process: Blood samples were placed on ice prior to centrifugation and centrifuged within 15 min at 5000 rpm for 10 min at 4° C.
Immediately after blood withdrawal, in situ brain perfusion was performed using chilled saline. The chest of the rat was exposed, the abdominal aorta was clamped and both jugular veins were cut. Intra-cardial perfusion was performed through an insertion in the left ventricle. Perfusion of each rat was followed by exanguination for brain collection. The skin over the cranium was incised and deflected. The head was flexed and a cut was made through the muscles and the spinal cord at the junction of the foreman magnum and atlas vertebra. A circumferential incision was carefully made in the cranium using a bone cutter. The roof of the cranium was lifted off to expose the meninges and brain. The meninges were removed carefully. Then holding the head with the nose pointing upward, the anterior part of the brain was lifted to separate the brain. Separated brain was immediately weighed and frozen at −80±10° C. until homogenization.
Brain samples were thawed on ice. An appropriate volume of ice cold homogenizing media (Normal Saline) was added. Brain samples were homogenized on ice with the Polytron® homogenizer and volume was adjusted with homogenizing media to achieve 1 g of brain per 5 ml of homogenate. After homogenization, the brain homogenate were immediately frozen at −80° C. until analysis.

Compound: CCCOc1ccc(Nc2nc3nonc3nc2N2CCC(Oc3ccc(Cl)cc3)CC2)cc1 [Comp 1]
- Aβ1-42 level in the hippocampus [1]: decreased the Aβ1-42 level increase
- Concentration in rat brain homogenate i.p. at 2 h, individual rats ([2]; 10 mg/kg i.p., rats R1, R2, R3): 31.30 ng/g and 44.55 ng/g
- Concentration in rat plasma i.p. at 2 h, individual rats ([2]; 10 mg/kg i.p., rats R1, R2, R3): 63.64 ng/mL and 87.75 ng/mL
- Concentration in rat brain homogenate i.v. at 2 h, individual rats ([2]; 10 mg/kg i.v., rats R1, R2, R3): 394.80 ng/g and 439.45 ng/g
- Concentration in rat plasma i.v. at 2 h, individual rats ([2]; 10 mg/kg i.v., rats R1, R2, R3): 293.38 ng/mL and 156.26 ng/mL
- concentration at 2 h ([2]; rat, brain homogenate, intraperitoneal, 10 mg/kg i.p., mean of 3 rats, read-out: Concentration in rat brain homogenate i.p. at 2 h, Mean): 41.6 ng/g
- concentration at 2 h ([2]; rat, brain homogenate, intraperitoneal, 10 mg/kg i.p., rats R1, R2, R3, read-out: Concentration in rat brain homogenate i.p. at 2 h, individual rats): 49.1 ng/g
- concentration at 2 h ([2]; rat, brain homogenate, intravenous, 10 mg/kg i.v., mean of 3 rats, read-out: Concentration in rat brain homogenate i.v. at 2 h, Mean): 386 ng/g
- concentration at 2 h ([2]; rat, brain homogenate, intravenous, 10 mg/kg i.v., rats R1, R2, R3, read-out: Concentration in rat brain homogenate i.v. at 2 h, individual rats): 323 ng/g
- concentration at 2 h ([2]; rat, plasma, intraperitoneal, 10 mg/kg i.p., mean of 3 rats, read-out: Concentration in rat plasma i.p. at 2 h, Mean): 91.5 ng/mL
- concentration at 2 h ([2]; rat, plasma, intraperitoneal, 10 mg/kg i.p., rats R1, R2, R3, read-out: Concentration in rat plasma i.p. at 2 h, individual rats): 123 ng/mL
- concentration at 2 h ([2]; rat, plasma, intravenous, 10 mg/kg i.v., mean of 3 rats, read-out: Concentration in rat plasma i.v. at 2 h, Mean): 204 ng/mL
- concentration at 2 h ([2]; rat, plasma, intravenous, 10 mg/kg i.v., rats R1, R2, R3, read-out: Concentration in rat plasma i.v. at 2 h, individual rats): 163 ng/mL
- blood-brain permeability (in words) ([2]; rat, 10 mg/kg i.v. or i.p., 2 h): excellent blood-brain permeability
